Measurements published in US20250215030A1, “STAT MODULATORS AND USES THEREOF” (Recludix Pharma, Inc., priority 2022, published 2025).

Experiments:
[1] = target: T1, Recombinant STAT6 protein (STAT6(W123-T658)) (Homo sapiens, UniProt P42226); test: STAT6 Fluorescence Polarization (FP) Assay; format: binding; settings: STAT6(W123-T658) 250 nM, probe 5-FAM-ApYKPFQDLI-NH2 2 nM, 45-minute incubation
T1 construct: STAT6(W123-T658)
T1 sequence (P42226 123-658): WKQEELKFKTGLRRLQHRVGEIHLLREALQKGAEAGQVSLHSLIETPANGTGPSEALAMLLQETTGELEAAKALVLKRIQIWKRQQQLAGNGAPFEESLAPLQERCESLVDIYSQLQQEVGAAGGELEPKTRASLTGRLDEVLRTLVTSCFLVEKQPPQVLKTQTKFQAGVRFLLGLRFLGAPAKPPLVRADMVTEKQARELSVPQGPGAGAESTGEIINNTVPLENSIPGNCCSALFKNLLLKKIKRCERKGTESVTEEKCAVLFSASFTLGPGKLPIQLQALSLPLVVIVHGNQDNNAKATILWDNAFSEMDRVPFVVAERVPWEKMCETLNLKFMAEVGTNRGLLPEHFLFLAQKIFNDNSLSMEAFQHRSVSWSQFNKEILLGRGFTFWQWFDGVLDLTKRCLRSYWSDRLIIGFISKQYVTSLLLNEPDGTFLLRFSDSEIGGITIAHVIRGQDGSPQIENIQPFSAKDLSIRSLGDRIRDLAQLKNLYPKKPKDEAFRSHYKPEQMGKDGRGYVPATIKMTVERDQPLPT
Summary of the method: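 Competitive displacement of a fluorescent phosphotyrosine peptide (2 nM) from recombinant STAT6 W123-T658 (250 nM), 45 min at room temperature in 10 mM HEPES pH 7.4, 50 mM NaCl, 2 mM DTT. mP fitted against log compound for IC50, grouped A (≤300 nM) to D (>30 μM).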

[2] = target: T2, Recombinant STAT3 protein (STAT3(G127-I722)) (Homo sapiens, UniProt P40763); test: STAT3 Fluorescence Polarization (FP) Assay; format: binding; settings: STAT3(G127-I722) 25 nM, probe 5-FAM-GpYLPQTV-NH2 2 nM, 45-minute incubation
T2 construct: STAT3(G127-I722)
T2 sequence (P40763 127-722, species assumed): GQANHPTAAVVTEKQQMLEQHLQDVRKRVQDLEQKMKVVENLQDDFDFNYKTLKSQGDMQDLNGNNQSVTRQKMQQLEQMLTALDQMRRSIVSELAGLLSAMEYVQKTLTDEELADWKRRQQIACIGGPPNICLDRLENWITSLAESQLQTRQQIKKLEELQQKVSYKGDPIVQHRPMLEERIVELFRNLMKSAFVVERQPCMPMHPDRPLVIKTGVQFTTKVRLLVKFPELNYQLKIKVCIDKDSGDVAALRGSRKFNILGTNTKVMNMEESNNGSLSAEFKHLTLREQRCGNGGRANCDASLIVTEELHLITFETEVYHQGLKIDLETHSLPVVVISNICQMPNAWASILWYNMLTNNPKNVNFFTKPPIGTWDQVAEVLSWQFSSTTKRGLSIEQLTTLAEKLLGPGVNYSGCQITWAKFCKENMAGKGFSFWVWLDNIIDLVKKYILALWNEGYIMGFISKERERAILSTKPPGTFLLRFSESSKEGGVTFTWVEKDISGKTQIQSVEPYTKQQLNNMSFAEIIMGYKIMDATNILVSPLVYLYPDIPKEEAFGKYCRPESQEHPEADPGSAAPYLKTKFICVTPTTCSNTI
Summary of the method: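 Serially diluted compounds (1% DMSO) were mixed with 2 nM fluorescent phosphotyrosine peptide and 25 nM STAT3 construct G127-I722, pH 7.4, incubated 45 min at room temperature. IC50 values from fitted polarization curves are reported as categories A (≤100 nM), B, C, D (>10 μM).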

SMILES | IC50 [1] [µM] | IC50 [2] [µM]
O=C(N[C@H]1C[C@@H]2C[C@@H]2C[C@H]2CC[C@@H](C(=O)N3CC(c4cccnc4)C3)N2C1=O)c1cc2cc(C(F)(F)P(=O)(O)O)ccc2s1 [Compound 36, (difluoro(2-(((3S,6S,7aS,8aR,9aR)-5-oxo-3-(3-(pyridin-3-yl)azetidine-1-carbonyl)decahydro-1H-cyclopropa[d]pyrrolo[1,2-a]azocin-6-yl)carbamoyl)benzo[b]thiophen-5-yl)methyl)phosphonic acid] | 0.3 to 3 | < 0.1
O=C(N[C@H]1C[C@@H]2C[C@@H]2CC2CC[C@@H](C(=O)N3CC(c4cncnc4N4CCC4)C3)N2C1=O)c1cc2cc([C@@H](F)P(=O)(O)O)ccc2s1 (single isomer, unassigned) [Example 401] | 3 to 30 | < 0.1
COC1(c2nccn2C)CN(C(=O)[C@@H]2CC[C@@H]3C[C@@]4(C)C[C@H]4C[C@H](NC(=O)c4cc5cc(C(F)(F)P(=O)(O)O)ccc5s4)C(=O)N32)C1 [Example 237, (difluoro(2-(((3S,6S,7aS,8aR,9aR)-3-(3-methoxy-3-(1-methyl-1H-imidazol-2-yl)azetidine-1-carbonyl)-8a-methyl-5-oxodecahydro-1H-cyclopropa[d]pyrrolo[1,2-a]azocin-6-yl)carbamoyl)benzo[b]thiophen-5-yl)methyl)phosphonic acid] | 3 to 30 | 0.1 to 1
CC(C)C1(c2ccccc2)CN(C(=O)[C@@H]2CC[C@@H]3C[C@@H]4C[C@@H]4C[C@H](NC(=O)c4cc5cc(C(F)(F)P(=O)(O)O)ccc5s4)C(=O)N32)C1 [Compound 79, (difluoro(2-(((3S,6S,7aR,8aS,9aR)-3-(3-isopropyl-3-phenylazetidine-1-carbonyl)-5-oxodecahydro-1H-cyclopropa[d]pyrrolo[1,2-a]azocin-6-yl)carbamoyl)benzo[b]thiophen-5-yl)methyl)phosphonic acid] | 3 to 30 | < 0.1
O=C(N[C@H]1C[C@@H]2C[C@@H]2C[C@H]2CC[C@@H](C(=O)N3CC(c4cncnc4)C3)N2C1=O)c1cc2cc(C(F)(F)P(=O)(O)O)ccc2s1 [Compound 61, (difluoro(2-(((3S,6S,7aS,8aR,9aR)-5-oxo-3-(3-(pyrimidin-5-yl)azetidine-1-carbonyl)decahydro-1H-cyclopropa[d]pyrrolo[1,2-a]azocin-6-yl)carbamoyl)benzo[b]thiophen-5-yl)methyl)phosphonic acid] | 3 to 30 | < 0.1
Cc1cnc(C2CN(C(=O)[C@@H]3CC[C@@H]4C[C@H]5C[C@H]5C[C@H](NC(=O)c5cc6cc(C(F)P(=O)(O)O)ccc6s5)C(=O)N43)C2)o1 (stereo partly drawn) [Example 324, (fluoro(2-(((3S,6S,7aS,8aR,9aR)-3-(3-(5-methyloxazol-2-yl)azetidine-1-carbonyl)-5-oxodecahydro-1H-cyclopropa[d]pyrrolo[1,2-a]azocin-6-yl)carbamoyl)benzo[b]thiophen-5-yl)methyl)phosphonic acid] | 3 to 30 | 0.1 to 1
Cn1cnnc1C1CN(C(=O)[C@@H]2CC[C@@H]3C[C@@H]4C[C@@H]4C[C@H](NC(=O)c4cc5cc(C(F)P(=O)(O)O)ccc5s4)C(=O)N32)C1 (stereo partly drawn) [Example 331, (fluoro(2-(((3S,6S,7aR,8aS,9aR)-3-(3-(4-methyl-4H-1,2,4-triazol-3-yl)azetidine-1-carbonyl)-5-oxodecahydro-1H-cyclopropa[d]pyrrolo[1,2-a]azocin-6-yl)carbamoyl)benzo[b]thiophen-5-yl)methyl)phosphonic acid] | 3 to 30 | < 0.1
COc1ccncc1C1CN(C(=O)[C@@H]2CC[C@@H]3C[C@H]4C[C@H]4C[C@H](NC(=O)c4cc5cc(CP(=O)(O)O)ccc5s4)C(=O)N32)C1 [Example 265, ((2-(((3S,6S,7aS,8aR,9aR)-3-(3-(4-methoxypyridin-3-yl)azetidine-1-carbonyl)-5-oxodecahydro-1H-cyclopropa[d]pyrrolo[1,2-a]azocin-6-yl)carbamoyl)benzo[b]thiophen-5-yl)methyl)phosphonic acid] | > 30 | < 0.1
CN1CCN(c2ccncc2C2CN(C(=O)[C@@H]3CC[C@@H]4C[C@H]5C[C@H]5C[C@H](NC(=O)c5cc6cc([C@@H](F)P(=O)(O)O)ccc6s5)C(=O)N43)C2)CC1 (single isomer, unassigned) [Example 404] | > 30 | < 0.1
O=C(N[C@H]1C[C@@H]2C[C@@H]2C[C@H]2CC[C@@H](C(=O)N3CCOc4ncccc43)N2C1=O)c1cc2cc(C(F)P(=O)(O)O)ccc2s1 (stereo partly drawn) [Example 386, ((2-(((3S,6S,7aS,8aR,9aR)-3-(2,3-dihydro-1H-pyrido[2,3-b][1,4]oxazine-1-carbonyl)-5-oxodecahydro-1H-cyclopropa[d]pyrrolo[1,2-a]azocin-6-yl)carbamoyl)benzo[b]thiophen-5-yl)fluoromethyl)phosphonic acid] | 0.3 to 3 | 1 to 10
O=C(N[C@H]1C[C@H]2C[C@H]2C[C@H]2CC[C@@H](C(=O)N3CC(c4cnccc4F)C3)N2C1=O)c1cc2cc(C(F)P(=O)(O)O)ccc2s1 (stereo partly drawn) [Example 248, (fluoro(2-(((3S,6S,7aR,8aS,9aR)-3-(3-(4-fluoropyridin-3-yl)azetidine-1-carbonyl)-5-oxodecahydro-1H-cyclopropa[d]pyrrolo[1,2-a]azocin-6-yl)carbamoyl)benzo[b]thiophen-5-yl)methyl)phosphonic acid] | 0.3 to 3 | < 0.1
O=C(N[C@H]1C[C@@H]2C[C@@H]2C[C@H]2CC[C@@H](C(=O)N3CC(c4ccon4)C3)N2C1=O)c1cc2cc(C(F)P(=O)(O)O)ccc2s1 (stereo partly drawn) [Example 312, (fluoro(2-(((3S,6S,7aS,8aR,9aR)-3-(3-(isoxazol-3-yl)azetidine-1-carbonyl)-5-oxodecahydro-1H-cyclopropa[d]pyrrolo[1,2-a]azocin-6-yl)carbamoyl)benzo[b]thiophen-5-yl)methyl)phosphonic acid] | 3 to 30 | < 0.1
N#C[C@@H]1CN(C(=O)[C@@H]2CC[C@@H]3[C@H]4C[C@H]4C[C@H](NC(=O)c4cc5cc(C(F)(F)P(=O)(O)O)ccc5s4)C(=O)N32)C[C@H]1c1ccccc1 (single isomer, unassigned) [Compound 66, ((2-(((3S,6S,7aS,8aS,8bR)-3-((3S,4R or 3R,4S)-3-cyano-4-phenylpyrrolidine-1-carbonyl)-5-oxodecahydrocyclopropa[c]pyrrolo[1,2-a]azepin-6-yl)carbamoyl)benzo[b]thiophen-5-yl)difluoromethyl)phosphonic acid] | ≤ 0.3 | 1 to 10
Cc1nnc(C2CN(C(=O)[C@@H]3CC[C@@H]4C[C@H]5C[C@H]5C[C@H](NC(=O)c5cc6cc(C(F)P(=O)(O)O)ccc6s5)C(=O)N43)C2)o1 (stereo partly drawn) [Example 327, (fluoro(2-(((3S,6S,7aS,8aR,9aR)-3-(3-(5-methyl-1,3,4-oxadiazol-2-yl)azetidine-1-carbonyl)-5-oxodecahydro-1H-cyclopropa[d]pyrrolo[1,2-a]azocin-6-yl)carbamoyl)benzo[b]thiophen-5-yl)methyl)phosphonic acid] | 3 to 30 | 0.1 to 1
